Results published in US20090227673A1, “Method and Composition for the Treatment of Parkinson's Disease” (priority 2006, published 2009).
pIC50: −log10 of the molar value. Like-named read-outs stand apart in the source and are kept apart here.

Target: T1, human COMT (Homo sapiens, UniProt P21964)
T1 construct: from tissue; host or cells: human liver cytosol (preparations HL4C, HL9C, HL8C)
T1 sequence (P21964 1-221 isoform P21964-2): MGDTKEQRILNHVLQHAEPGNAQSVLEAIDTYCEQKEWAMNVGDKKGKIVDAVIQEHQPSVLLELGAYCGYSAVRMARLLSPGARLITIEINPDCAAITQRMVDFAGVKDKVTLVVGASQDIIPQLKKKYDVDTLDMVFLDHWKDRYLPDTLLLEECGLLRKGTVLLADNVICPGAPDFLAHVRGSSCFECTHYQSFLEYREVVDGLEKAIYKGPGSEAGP
Assay: Inhibition of human liver COMT-mediated o-methylation of catecholamines (human liver cytosol, [3H-methyl]AdoMet)
Type: biochemical

[1] = 10 μM catecholamine substrate, 250 μM AdoMet, 0.25 mg/mL human liver cytosolic protein, 37° C., 10 min, pH 7.4

pIC50 [1] | Compound | pIC50
 | O=C(/C=C/c1ccc(O)c(O)c1)OCCc1ccccc1 [caffeic acid pheethyl ester, caffeic acid phenethyl ester] | 6.00 to 6.30
6.00 to 6.30 | O=C(O)/C=C/c1ccc(O)c(O)c1 [caffeic acid] | 
6.00 to 6.30 | O=C(/C=C/c1ccc(O)c(O)c1)O[C@@H]1C[C@](O)(C(=O)O)C[C@@H](O)[C@H]1O [chlorogenic acid] | 
6.00 to 6.30 | Oc1cc(O)c2c(c1)O[C@H](c1ccc(O)c(O)c1)[C@H](O)C2 [epicatechin] | 
~6.48 | O=c1c(O)c(-c2ccc(O)c(O)c2)oc2cc(O)cc(O)c12 [quercetin] | 
